# Reference: patent US11849742B2, “Tasteful natural sweetener and flavor” (priority 2018, dated 2023)
# How the values were obtained:
# [1] = Kinetics of reaction: degradation of Phe and Reb-A, Gluc, Xyl, Suc at various pH-conditions (HPLC/MS); format: physicochemical
# Method: Quantitative evaluation was performed using external standardization.
# Kinetics of Reaction in dependence of pH-conditions
# [2] = non-sugar natural sweeteners of Momordica grosvenori juice or extract; cited from earlier work
# [3] = Assay to test reducing power (iron-III reduction); details: iron-III reduction and radical scavenging (FIG. 49, FIG. 50); amino acids and Reb-A, 100° C., pH 7.8
# Method: 0.2 M Sodium phosphate buffer, pH=6.6; 500 mg Potassium ferric(III)cyanide/50 mL water, 10% Trichloroacetic acid; 20 mg Iron-III-Chloride/20 mL water; Calibration samples were prepared with Ascorbic acid in a concentration of 0-100 μg/mL 0.2 M Sodium phosphate buffer, pH=6.6 (freshly prepared); as negative control sample water was used.
# Samples in aqueous solution were used as such or diluted in 0.2 M Sodium phosphate buffer, pH=6.6.
# A 1 mL sample (or calibration standard) was mixed with 1 mL 0.2 M Sodium phosphate buffer, pH=6.6 and 1 ml Potassium ferricyanide solution. The sample was incubated and protected from light at 50° C. for 20 min.
# To the solution was added 1 mL Trichloroacetic acid with thorough mixing.
# A 1 mL of the mixture was diluted with 1 ml H2O and 0.2 ml Iron-III-chloride and reacted for 10 minutes; The absorbance was then determined at 700 nm against H2O.
# 10 mM of amino acid and/or 10 mM sugar were dissolved in 10 ml 0.1 mM KH2PO4-buffer, pH=7.8. […]
# 1 ml sample (or calibration standard) solution) was mixed with 0.2 M Sodium phosphate buffer (pH=6.6) and 1 ml Potassium ferric(III)cyanide solution in water (1% w/v) and incubated at 50° C. for 20 minutes. […] The sample was incubated for 10 minutes and absorbance read at 700 nm against a water control. […]
# Quantification was performed by linear regression of calibration test results for ascorbic acid. […]
smiles,measurement,setting,value
N[C@@H](CCC(=O)O)C(=O)O [Glu],% degradation,[1]; pH = 5.5,3.65%
same,% degradation,[1]; pH = 7.0,4.6%
same,% degradation,[1]; pH = 8.5,7.62%
C[C@H](CC[C@@H](O[C@@H]1O[C@H](CO[C@@H]2O[C@H](CO)[C@@H](O)[C@H](O)[C@H]2O)[C@@H](O)[C@H](O)[C@H]1O[C@@H]1O[C@H](CO)[C@@H](O)[C@H](O)[C@H]1O)C(C)(C)O)[C@H]1CC[C@@]2(C)[C@@H]3CC=C4[C@@H](CC[C@H](O[C@@H]5O[C@H](CO[C@@H]6O[C@H](CO)[C@@H](O)[C@H](O)[C@H]6O)[C@@H](O)[C@H](O)[C@H]5O)C4(C)C)[C@]3(C)[C@H](O)C[C@]12C [mogroside V],"natural sweetness, times of that of sugar",[2],256-344 times of that of sugar
"C=C1C[C@@]23CC[C@H]4[C@@](C)(CCC[C@@]4(C)C(=O)O[C@@H]4O[C@H](CO)[C@@H](O)[C@H](O)[C@H]4O)[C@@H]2CC[C@]1(O[C@@H]1O[C@H](CO)[C@@H](O)[C@H](O[C@@H]2O[C@H](CO)[C@@H](O)[C@H](O)[C@H]2O)[C@H]1O[C@@H]1O[C@H](CO)[C@@H](O)[C@H](O)[C@H]1O)C3 [Reb-A, Rebaudioside A]",anti-oxidant properties,[3],substantial anti-oxidant properties
OC[C@@H](O)[C@@H](O)[C@H](O)[C@H](O)CO [D-mannitol],"natural sweetness, times of that of sugar",[2],0.55-0.65 times of that of sugar
C[C@H](CC[C@@H](O[C@@H]1O[C@H](CO)[C@@H](O)[C@H](O)[C@H]1O[C@@H]1O[C@H](CO)[C@@H](O)[C@H](O)[C@H]1O)C(C)(C)O)[C@H]1CC[C@@]2(C)[C@H]3CC=C4[C@@H](CC[C@H](O[C@@H]5O[C@H](CO[C@@H]6O[C@H](CO)[C@@H](O)[C@H](O)[C@H]6O)[C@@H](O)[C@H](O)[C@H]5O)C4(C)C)[C@]3(C)[C@H](O)C[C@]12C [mogroside IV],"natural sweetness, times of that of sugar",[2],126 times of that of sugar
